# Experimental data from patent US20230390267A1, “TREATMENT REGIMENS FOR EARLY IDIOPATHIC PARKINSON'S DISEASE” (BIAL - PORTELA & CA., S.A., priority 2020, published 2023).
# Read-outs that look alike come from different tables or passages of the source.
# Legend:
# [1] = tested on: PD patients with motor fluctuations (Japanese population); conditions: p<0.05, cited from earlier work
# [2] = tested on: PD patients with motor fluctuations; conditions: cited from earlier work
# [3] = adjunct opicapone to levodopa/benserazide, cited from earlier work
# [4] = tested on: S-COMT; conditions: peripheral tissues; cited from earlier work
# [5] = tested on: erythrocyte COMT; conditions: cynomolgus monkey; cited from earlier work
# [6] = tested on: PD patients with motor fluctuations; conditions: cited from earlier work; remark: listed apart in the source
# [7] = cited from earlier work
# [8] = tested on: patients who switched from entacapone to opicapone or had lack of efficacy or adverse events with entacapone; conditions: patients who continued with opicapone beyond 6 months; cited from earlier work
# [9] = tested on: patients with early idiopathic Parkinson's disease treated with levodopa/DDCI, with no signs of motor complications; test: EPSILON Phase III study, safety (treatment emergent adverse events)
# Source text: The term “treatment-emergent adverse event” is defined as any event not present before exposure to the study drug or any event already present that worsens in either intensity or frequency after first intake of study drug until 2 weeks after last intake of the study drug.
# The factors evaluated include: • Treatment-emergent adverse events (TEAEs) including serious adverse events (SAEs) • Laboratory safety tests (biochemistry, hematology, coagulation and urinalysis) • Physical and neurological examinations • Vital signs • 12-lead ECG readings • Columbia-Suicide Severity Rating Scale (C-SSRS) • Modified Minnesota Impulsive Disorders Interview (mMIDI)
compound,measurement,setting,value
"Cc1c(Cl)c(C)[n+]([O-])c(Cl)c1-c1noc(-c2cc(O)c(O)c([N+](=O)[O-])c2)n1 [opicapone, 2,5-dichloro-3-[5-(3,4-dihydroxy-5-nitrophenyl)-1,2,4-oxadiazol-3-yl]-4,6-dimethylpyridine 1-oxide]",placebo adjusted reduction in OFF time,[1]; opicapone 25 mg dose group,-0.74 h
same,placebo adjusted reduction in OFF time,[1]; opicapone 50 mg dose,-0.62 h
same,patients who reported they were improved,[2]; 3 months,76.9%
same,patients judged as having worsened,"[2]; UK patients (n=95), 6 months",6.4%
same,patients judged as improved since commencing treatment,"[2]; UK patients (n=95), 6 months",85.3%
same,patients judged as showing 'no change',"[2]; UK patients (n=95), 6 months",8.4%
same,patients much improved,"[2]; UK patients (n=95), 6 months",49.4%
same,patients very much improved,"[2]; UK patients (n=95), 6 months",8.4%
same,patients reported as much or very much improved (CGI-C),"[2]; opicapone 50 mg, 3 months",43%
same,patients showing clinical improvement as judged by the investigators (CGI-C),"[2]; opicapone 50 mg, 3 months",71.3%
same,improvement in UPDRS ADL score,[2]; opicapone adjunct therapy,3.0 points
same,improvement in UPDRS motor score,[2]; opicapone adjunct therapy,4.6 points
same,mean±SD improvement in NMSS sleep/fatigue score versus baseline,[2]; p<0.0001,−1.3+6.3 points
same,mean±SD improvement in NMSS total score versus baseline,[2]; p<0.0001,−6.8±19.7 points
same,increase of levodopa systemic exposure,[3]; Cmax not changed,2 fold
same,reduction of 3-O-methyldopa (3-OMD) exposure and Cmax,[3],up to 7 fold
same,binding affinity to S-COMT,[4],sub-picomolar
same,reduction in erythrocyte COMT activity,[5],≤ 85%
same,mean improvement in NMSS total score,[6]; 1-year open-label endpoint,−4.2
same,change in NMSS sleep/fatigue score,"[6]; opicapone 50 mg dose, vs −0.5 with placebo",−1.2 points
same,increase of minimum plasma concentration (Cmin) for individual levodopa doses,"[7]; human, in vivo",up to 2.6 fold
same,effect on levodopa systemic exposure and peak-to-trough fluctuations,"[7]; once daily opicapone 50 mg, levodopa given every 3 and 4 hours",increased systemic exposure to levodopa
same,mean reduction in OFF time measured by interview,[8],−2 hours per day
same,Any Serious TEAE; %,"[9]; double blind phase, N = 177",(5.1) %
same,Any Serious TEAE; n,"[9]; double blind phase, N = 177",9
same,Any TEAE by Maximum Severity: Mild; %,"[9]; double blind phase, N = 177",(29.9) %
same,Any TEAE by Maximum Severity: Mild; n,"[9]; double blind phase, N = 177",53
same,Any TEAE by Maximum Severity: Moderate; %,"[9]; double blind phase, N = 177",(14.1) %
same,Any TEAE by Maximum Severity: Moderate; n,"[9]; double blind phase, N = 177",25
same,Any TEAE by Maximum Severity: Severe; %,"[9]; double blind phase, N = 177",(3.4) %
same,Any TEAE by Maximum Severity: Severe; n,"[9]; double blind phase, N = 177",6
same,Any TEAE by Worst Relationship: Definitely Related; %,"[9]; double blind phase, N = 177",(1.1) %
same,Any TEAE by Worst Relationship: Definitely Related; n,"[9]; double blind phase, N = 177",2
same,"Any TEAE by Worst Relationship: Not Related (first line, total incl. Unlikely Related); %","[9]; double blind phase, N = 177",(37.3) %
same,"Any TEAE by Worst Relationship: Not Related (first line, total incl. Unlikely Related); n","[9]; double blind phase, N = 177",66
same,"Any TEAE by Worst Relationship: Not Related (second line, sub-category); %","[9]; double blind phase, N = 177",(36.2) %
same,"Any TEAE by Worst Relationship: Not Related (second line, sub-category); n","[9]; double blind phase, N = 177",64
same,Any TEAE by Worst Relationship: Possibly Related; %,"[9]; double blind phase, N = 177",(5.6) %
same,Any TEAE by Worst Relationship: Possibly Related; n,"[9]; double blind phase, N = 177",10
same,Any TEAE by Worst Relationship: Probably Related; %,"[9]; double blind phase, N = 177",(3.4) %
same,Any TEAE by Worst Relationship: Probably Related; n,"[9]; double blind phase, N = 177",6
same,Any TEAE by Worst Relationship: Related; %,"[9]; double blind phase, N = 177",(10.2) %
same,Any TEAE by Worst Relationship: Related; n,"[9]; double blind phase, N = 177",18
same,Any TEAE by Worst Relationship: Unlikely Related; %,"[9]; double blind phase, N = 177",(1.1) %
same,Any TEAE by Worst Relationship: Unlikely Related; n,"[9]; double blind phase, N = 177",2
same,Any TEAE leading to Death; %,"[9]; double blind phase, N = 177",(0.6) %
same,Any TEAE leading to Death; n,"[9]; double blind phase, N = 177",1
same,Any TEAE leading to IMP interruption; %,"[9]; double blind phase, N = 177",(0.6) %
same,Any TEAE leading to IMP interruption; n,"[9]; double blind phase, N = 177",1
same,Any TEAE leading to Withdrawal; %,"[9]; double blind phase, N = 177",(1.1) %
same,Any TEAE leading to Withdrawal; n,"[9]; double blind phase, N = 177",2
same,Any TEAE; %,"[9]; double blind phase, N = 177",(47.5) %
same,Any TEAE; n,"[9]; double blind phase, N = 177",84
same,TEAE Arthralgia; %,"[9]; double blind phase, N = 177",(2.3) %
same,TEAE Arthralgia; n,"[9]; double blind phase, N = 177",4
same,TEAE Back pain; %,"[9]; double blind phase, N = 177",(4.5) %
same,TEAE Back pain; n,"[9]; double blind phase, N = 177",8
same,TEAE Dizziness; %,"[9]; double blind phase, N = 177",(1.1) %
same,TEAE Dizziness; n,"[9]; double blind phase, N = 177",2
same,TEAE Dyskinesia; %,"[9]; double blind phase, N = 177",(1.7) %
same,TEAE Dyskinesia; n,"[9]; double blind phase, N = 177",3
same,TEAE Fall; %,"[9]; double blind phase, N = 177",(2.3) %
same,TEAE Fall; n,"[9]; double blind phase, N = 177",4
same,TEAE Fatigue; %,"[9]; double blind phase, N = 177",(2.8) %
same,TEAE Fatigue; n,"[9]; double blind phase, N = 177",5
same,TEAE Gastrointestinal disorders; %,"[9]; double blind phase, N = 177",(6.8) %
same,TEAE Gastrointestinal disorders; n,"[9]; double blind phase, N = 177",12
same,TEAE General disorders; %,"[9]; double blind phase, N = 177",(7.9) %
same,TEAE General disorders; n,"[9]; double blind phase, N = 177",14
same,TEAE Headache; %,"[9]; double blind phase, N = 177",(0.6) %
same,TEAE Headache; n,"[9]; double blind phase, N = 177",1
same,TEAE Hypertension; %,"[9]; double blind phase, N = 177",(2.8) %
same,TEAE Hypertension; n,"[9]; double blind phase, N = 177",5
same,TEAE Infections and Infestations; %,"[9]; double blind phase, N = 177",(15.8) %
same,TEAE Infections and Infestations; n,"[9]; double blind phase, N = 177",28
same,"TEAE Injury, poisoning and procedural complications; %","[9]; double blind phase, N = 177",(3.4) %
same,"TEAE Injury, poisoning and procedural complications; n","[9]; double blind phase, N = 177",6
same,TEAE Insomnia; %,"[9]; double blind phase, N = 177",(2.3) %
same,TEAE Insomnia; n,"[9]; double blind phase, N = 177",4
same,TEAE Musculoskeletal and connective tissue disorders; %,"[9]; double blind phase, N = 177",(10.2) %
same,TEAE Musculoskeletal and connective tissue disorders; n,"[9]; double blind phase, N = 177",18
same,TEAE Nausea; %,"[9]; double blind phase, N = 177",(2.3) %
same,TEAE Nausea; n,"[9]; double blind phase, N = 177",4
same,TEAE Nervous System Disorders; %,"[9]; double blind phase, N = 177",(13.6) %
same,TEAE Nervous System Disorders; n,"[9]; double blind phase, N = 177",24
same,TEAE Oedema peripheral; %,"[9]; double blind phase, N = 177",(2.3) %
same,TEAE Oedema peripheral; n,"[9]; double blind phase, N = 177",4
same,TEAE On and off phenomenon; %,"[9]; double blind phase, N = 177",(4.5) %
same,TEAE On and off phenomenon; n,"[9]; double blind phase, N = 177",8
same,TEAE Psychiatric disorders; %,"[9]; double blind phase, N = 177",(7.9) %
same,TEAE Psychiatric disorders; n,"[9]; double blind phase, N = 177",14
same,TEAE Tremor; %,"[9]; double blind phase, N = 177",(1.1) %
same,TEAE Tremor; n,"[9]; double blind phase, N = 177",2
same,TEAE Upper respiratory tract infection; %,"[9]; double blind phase, N = 177",(0.6) %
same,TEAE Upper respiratory tract infection; n,"[9]; double blind phase, N = 177",1
same,TEAE Urinary tract infection; %,"[9]; double blind phase, N = 177",(2.3) %
same,TEAE Urinary tract infection; n,"[9]; double blind phase, N = 177",4
same,TEAE Vascular disorders; %,"[9]; double blind phase, N = 177",(5.6) %
same,TEAE Vascular disorders; n,"[9]; double blind phase, N = 177",10
same,TEAE Vomiting; %,"[9]; double blind phase, N = 177",(1.7) %
same,TEAE Vomiting; n,"[9]; double blind phase, N = 177",3
same,increase in treatment emergent adverse events including nervous system disorders such as dyskinesia,[9]; opicapone-treated patients vs placebo,no increase
same,tolerability,[9]; patients without clinically diagnosed motor complications,well tolerated
